Numbering of substitutions follows the chain as printed. Where two headings read alike, the source gives them in different places.
Assays:
mutant MGL = target: T1, mutant MGL (Homo sapiens, UniProt Q99685, L169S/L176S); assay: MGL ThermoFluor assay - mutant; type: binding
T1 sequence (Q99685 1-303 L169S/L176S): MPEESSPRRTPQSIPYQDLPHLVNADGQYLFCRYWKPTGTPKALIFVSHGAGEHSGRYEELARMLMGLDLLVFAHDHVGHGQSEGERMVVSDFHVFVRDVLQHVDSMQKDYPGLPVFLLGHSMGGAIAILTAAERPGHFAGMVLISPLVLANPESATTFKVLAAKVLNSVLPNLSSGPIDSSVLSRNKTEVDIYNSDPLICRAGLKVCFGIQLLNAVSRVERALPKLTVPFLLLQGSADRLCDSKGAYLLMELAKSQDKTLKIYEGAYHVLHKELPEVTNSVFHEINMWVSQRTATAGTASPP

[1] = target: T2, purified wild type MGL (wt-MGLL 6H-11-313) (Homo sapiens, UniProt Q99685)
T2 sequence (Q99685 1-303): T1 sequence (Q99685 1-303 L169S/L176S) with S169L, S176L

MGL = target: T3, MGL (Rattus norvegicus, UniProt Q8R431); assay: 2-AG accumulation assay in rat brain homogenate; type: biochemical; details: rat brain homogenate, 2-AG accumulation as percent of vehicle; for 2-AG accumulation, % of vehicle control at 1 µM: compound 1 μM, read-out: Rat Brain 2AG % VehCntrl (%) @ 1 μM; for 2-AG accumulation, % of vehicle control at 10 µM: compound 10 μM, read-out: Rat Brain 2AG % VehCntrl (%) @ 10 μM
T3 construct: one g rat brain was homogenized using a Polytron homogenizer; from tissue; host or cells: rat brain homogenate
T3 sequence (Q8R431 1-303): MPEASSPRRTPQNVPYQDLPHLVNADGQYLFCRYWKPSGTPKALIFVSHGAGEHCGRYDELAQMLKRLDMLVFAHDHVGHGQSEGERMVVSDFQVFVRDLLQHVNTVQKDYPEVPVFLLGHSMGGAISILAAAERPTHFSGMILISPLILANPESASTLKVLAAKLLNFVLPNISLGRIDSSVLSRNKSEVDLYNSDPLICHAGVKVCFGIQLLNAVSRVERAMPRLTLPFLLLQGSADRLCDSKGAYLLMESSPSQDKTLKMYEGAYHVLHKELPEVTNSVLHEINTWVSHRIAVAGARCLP

[2] = ThermoFluor concentration-response, read-out: MGL mutant ThermoFluor Kd
[3] = compound concentration measured by qNMR, read-out: MGL mutant ThermoFluor qKd (using qNMR conc.)
[4] = ThermoFluor thermal stability binding assay, read-out: MGL mutant ThermoFluor Kd
[5] = ThermoFluor, compound concentration measured by qNMR, read-out: MGL mutant ThermoFluor qKd (μM) (using qNMR conc.)

Kd (mutant MGL; [2]) [µM]	IC50 [1] [nM]	2-AG accumulation, % of vehicle control at 1 µM (MGL) [%]	Structure (SMILES)	other results
–	< 5	722	O=C(c1ccc2c(c1)CCN2c1ccc(F)cc1)N1CC(N2CCN(C(=O)c3nccs3)CC2)C1 [Cpd 885, 1-(4-Fluorophenyl)-5-({3-[4-(1,3-thiazol-2-ylcarbonyl)piperazin-1-yl]azetidin-1-yl}carbonyl)-2,3-dihydro-1H-indole]	Kd (mutant MGL; [3]): 0.001 µM
–	7	849	Cc1cn(-c2cccc(OC(F)(F)F)c2)c2ccc(C(=O)N3CC(N4CCN(C(=O)c5nccs5)CC4)C3)cc12 [Cpd 1068]	Kd (mutant MGL; [5]): 0.002 µM
0.003	19.2	–	O=C(c1ccc(-c2ccccc2)cc1)N1CC(N2CCN(C(=O)c3cccs3)CC2)C1 [Cpd 13, 1-[1-(Biphenyl-4-ylcarbonyl)azetidin-3-yl]-4-(thiophen-2-ylcarbonyl)piperazine]	2-AG accumulation, % of vehicle control at 10 µM (MGL): 730%
–	< 5	285	Cc1cc(C(=O)N2CC(N3CCN(C(=O)c4cscn4)CC3)C2)ccc1-c1ccc(F)c(Cl)c1 [Cpd 257, 1-{1-[(3′-Chloro-4′-fluoro-2-methylbiphenyl-4-yl)carbonyl]azetidin-3-yl}-4-(1,3-thiazol-4-ylcarbonyl)piperazine]	Kd (mutant MGL; [4]): 0.0033 µM
–	< 5	386	COc1cc(C(=O)N2CC(N3CCN(C(=O)c4cscn4)CC3)C2)ccc1-c1ccc(Cl)c(C(F)(F)F)c1 [Cpd 262, 1-(1-{[4′-Chloro-2-methoxy-3′-(trifluoromethyl)biphenyl-4-yl]carbonyl}azetidin-3-yl)-4-(1,3-thiazol-4-ylcarbonyl)piperazine]	Kd (mutant MGL; [4]): 0.0025 µM
0.143	41	262	O=C(c1cscn1)N1CCN(C2CN(C(=O)c3nn(-c4ccc(Cl)cc4Cl)c4c3CCC/C4=C\c3ccc(Cl)cc3)C2)CC1 [Cpd 1023]	–
0.667	847	159	O=C(c1cc(-c2ccccc2)cc(C(F)(F)F)c1)N1CC(N2CCN(C(=O)c3cscn3)CC2)C1 [Cpd 1259]	–
0.0667	338	–	Cc1c(-c2ccccc2)oc2c(C(=O)N3CC(N4CCN(C(=O)c5nccs5)CC4)C3)cccc2c1=O [Cpd 476]	2-AG accumulation, % of vehicle control at 10 µM (MGL): 272%
–	41	252	O=C(c1cc(-c2ccc(F)cc2)cs1)N1CC(N2CCN(C(=O)c3nccs3)CC2)C1 [Cpd 1157]	Kd (mutant MGL; [5]): 0.179 µM
0.007	7	408	O=C(c1ccc(-c2cccc(C(F)(F)F)c2)cc1)N1CCN(C2CN(C(=O)c3cscn3)C2)CC1 [Cpd 1067, 1-[1-(1,3-Thiazol-4-ylcarbonyl)azetidin-3-yl]-4-{[3′-(trifluoromethyl)biphenyl-4-yl]carbonyl}piperazine]	–
0.053	41	272	O=C(c1nccs1)N1CCN(C2CN(C(=O)C3CCC(c4ccc(Cl)cc4)CC3)C2)CC1 (stereo not shown) [Cpd 637]	–
0.009	10	545	Cc1cn(-c2ccc(F)cc2)c2ccc(C(=O)N3CCN(C4CN(C(=O)c5nccs5)C4)CC3)cc12 [Cpd 1089, 1-(4-Fluorophenyl)-3-methyl-5-({4-[1-(1,3-thiazol-2-ylcarbonyl)azetidin-3-yl]piperazin-1-yl}carbonyl)-1H-indole]	Kd (mutant MGL; ThermoFluor, compound concentration measured by qNMR, read-out: MGL mutant ThermoFluor qKd (using qNMR conc.)): 0.006 µM
0.031	12	296	O=C(c1cscn1)N1CCN(C2CN(C(=O)c3sc4cc(-c5ccccc5)ccc4c3C(F)(F)F)C2)CC1 [Cpd 1098, 1-(1-{[6-Phenyl-3-(trifluoromethyl)-1-benzothiophen-2-yl]carbonyl}azetidin-3-yl)-4-(1,3-thiazol-4-ylcarbonyl)piperazine]	–
–	16	647	Cn1cc(Cc2ccc(F)cc2)c2ccc(C(=O)N3CC(N4CCN(C(=O)c5ccc[nH]5)CC4)C3)cc21 [Cpd 1028]	Kd (mutant MGL; [3]): 0.011 µM

The next lines start with the compound.

Structure (SMILES)	Kd (mutant MGL; [2]) [µM]	IC50 [1] [nM]	2-AG accumulation, % of vehicle control at 1 µM (MGL) [%]	other results
O=C(c1csc(-c2cc(Cl)cc(Cl)c2)n1)N1CC(N2CCN(C(=O)c3nccs3)CC2)C1 [Cpd 158, 1-(1-{[2-(3,5-Dichlorophenyl)-1,3-thiazol-4-yl]carbonyl}azetidin-3-yl)-4-(1,3-thiazol-2-ylcarbonyl)piperazine]	0.476	657	126	2-AG accumulation, % of vehicle control at 10 µM (MGL): 213%
O=C(c1ccc2c(ccn2-c2ccc(C(F)(F)F)cc2)c1)N1CC(N2CCN(C(=O)c3ccns3)CC2)C1 [Cpd 1097, 5-({3-[4-(Isothiazol-5-ylcarbonyl)piperazin-1-yl]azetidin-1-yl}carbonyl)-1-[4-(trifluoromethyl)phenyl]-1H-indole]	0.032	12	422	–
O=C(c1cc2cc(-c3cccc(C(F)(F)F)c3)ccc2o1)N1CC(N2CCN(C(=O)c3nccs3)CC2)C1 [Cpd 1343]	–	< 5	838	Kd (mutant MGL; [4]): 0.077 µM
O=C(c1cscn1)N1CCN(C2CN(C(=O)c3ccc(-c4ccc(F)c(Cl)c4)cc3Cl)C2)CC1 [Cpd 265, 1-{1-[(3,3′-Dichloro-4′-fluorobiphenyl-4-yl)carbonyl]azetidin-3-yl}-4-(1,3-thiazol-4-ylcarbonyl)piperazine]	–	19	162	Kd (mutant MGL; [4]): 0.0198 µM; 2-AG accumulation, % of vehicle control at 0.1 µM (MGL; compound 0.1 μM, read-out: Rat Brain 2AG % VehCntrl (%) @ 0.1 μM): 126%; 2-AG accumulation, % of vehicle control at 10 µM (MGL): 643%
O=C(c1nccs1)N1CCN(C2CN(C(=O)c3sc4cc(F)ccc4c3C3CCC3)C2)CC1 [Cpd 695]	0.001	57	497	–
O=C(c1ccc2c(c1)CCN(C(=O)c1ccc[nH]1)C2)N1CC(N2CCN(C(=O)c3nccs3)CC2)C1 [Cpd 690]	–	46	367	Kd (mutant MGL; [4]): 0.104 µM
O=C(c1ccccc1)N1CCN(C2CN(C(=O)c3ccc4c(-c5ccc(C(F)(F)F)cc5)c[nH]c4c3)C2)CC1 [Cpd 634]	0.054	57	301	–
O=C(c1ccc2c(c1)CCN(c1ccccn1)C2)N1CC(N2CCN(C(=O)c3nccs3)CC2)C1 [Cpd 661]	–	10	764	Kd (mutant MGL; [4]): 0.047 µM
N#Cc1ccccc1-n1ccc2cc(C(=O)N3CC(N4CCN(C(=O)c5nccs5)CC4)C3)ccc21 [Cpd 1109]	–	15	680	Kd (mutant MGL; [4]): 0.022 µM
O=C(c1ccccc1)N1CCN(C2CN(C(=O)c3ccc(Cc4ccc(C(F)(F)F)cc4)cc3)C2)CC1 [Cpd 771]	0.05	7	465	–
CCCCCc1ccc(C(=O)N2CC(N3CCN(C(=O)c4nccs4)CC3)C2)cc1 [Cpd 893]	0.005	< 5	626	–
O=C(c1ccc(-n2nc3c(c2-c2ccc(Cl)cc2)CCCC3)cc1)N1CC(N2CCN(C(=O)c3nccs3)CC2)C1 [Cpd 1327]	0.005	< 5	966	–
O=C(c1cscn1)N1CCN(C2CN(C(=O)c3sc4c(C(F)(F)F)c(F)ccc4c3Cl)C2)CC1 [Cpd 697]	–	62	431	Kd (mutant MGL; [5]): 0.024 µM

Source: patent publication US8362000B2, “Azetidinyl diamides as monoacylglycerol lipase inhibitors” (Janssen Pharmaceutica NV, priority 2009, dated 2013)
